# Assay results taken from ChEMBL document CHEMBL1201862, “PubChem BioAssay data set” (2004).
# Active and inactive are the calls of the source.
# Tests used:
# [1] = biological target: T1, Calpain-2 catalytic subunit (Sus scrofa, UniProt P43367); assay: m-calpain protease blockers, concentration series – biochemical, fluorogenic peptide substrate, dose response (AID 1420); assay type: functional
# T1 sequence (P43367 whole entry): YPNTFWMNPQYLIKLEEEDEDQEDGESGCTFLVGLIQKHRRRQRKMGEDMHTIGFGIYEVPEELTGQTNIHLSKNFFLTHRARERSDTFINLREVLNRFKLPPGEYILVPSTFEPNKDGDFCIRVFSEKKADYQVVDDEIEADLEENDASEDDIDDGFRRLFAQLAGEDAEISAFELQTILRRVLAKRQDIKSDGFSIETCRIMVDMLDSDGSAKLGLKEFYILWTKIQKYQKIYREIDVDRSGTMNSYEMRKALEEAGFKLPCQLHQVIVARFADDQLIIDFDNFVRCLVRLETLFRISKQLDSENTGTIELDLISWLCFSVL
# [2] = loss of viability in HepG2 cells – cell-based, CellTiter-Glo, cherry-picked, cytotoxicity control for Shn3 inhibitor project, dose response (AID 624134); assay type: functional
# [3] = reduced cellular PGC1a acetyl-lysine signal – cell-based, cherry-picked samples, dose response (AID 720514); assay type: functional;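 further: potency may reflect raised or lowered acetylation signal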
# HEK293 = assay: membrane integrity loss in HEK cells – cell-based, fluorescence, cytotoxicity control for IDE activator project, dose response (AID 588440); assay type: functional; conditions: Homo sapiens;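 further: cytotoxicity by LDH release measuring loss of membrane integrity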
# Insulin-degrading enzyme = biological target: T2, Insulin-degrading enzyme (Homo sapiens, UniProt P14735); assay: cellular IDE activation of Abeta substrate cleavage – fluorescence polarization, HEK cells, dose response (AID 588439); assay type: functional, cell-based
# T2 sequence (P14735 whole entry): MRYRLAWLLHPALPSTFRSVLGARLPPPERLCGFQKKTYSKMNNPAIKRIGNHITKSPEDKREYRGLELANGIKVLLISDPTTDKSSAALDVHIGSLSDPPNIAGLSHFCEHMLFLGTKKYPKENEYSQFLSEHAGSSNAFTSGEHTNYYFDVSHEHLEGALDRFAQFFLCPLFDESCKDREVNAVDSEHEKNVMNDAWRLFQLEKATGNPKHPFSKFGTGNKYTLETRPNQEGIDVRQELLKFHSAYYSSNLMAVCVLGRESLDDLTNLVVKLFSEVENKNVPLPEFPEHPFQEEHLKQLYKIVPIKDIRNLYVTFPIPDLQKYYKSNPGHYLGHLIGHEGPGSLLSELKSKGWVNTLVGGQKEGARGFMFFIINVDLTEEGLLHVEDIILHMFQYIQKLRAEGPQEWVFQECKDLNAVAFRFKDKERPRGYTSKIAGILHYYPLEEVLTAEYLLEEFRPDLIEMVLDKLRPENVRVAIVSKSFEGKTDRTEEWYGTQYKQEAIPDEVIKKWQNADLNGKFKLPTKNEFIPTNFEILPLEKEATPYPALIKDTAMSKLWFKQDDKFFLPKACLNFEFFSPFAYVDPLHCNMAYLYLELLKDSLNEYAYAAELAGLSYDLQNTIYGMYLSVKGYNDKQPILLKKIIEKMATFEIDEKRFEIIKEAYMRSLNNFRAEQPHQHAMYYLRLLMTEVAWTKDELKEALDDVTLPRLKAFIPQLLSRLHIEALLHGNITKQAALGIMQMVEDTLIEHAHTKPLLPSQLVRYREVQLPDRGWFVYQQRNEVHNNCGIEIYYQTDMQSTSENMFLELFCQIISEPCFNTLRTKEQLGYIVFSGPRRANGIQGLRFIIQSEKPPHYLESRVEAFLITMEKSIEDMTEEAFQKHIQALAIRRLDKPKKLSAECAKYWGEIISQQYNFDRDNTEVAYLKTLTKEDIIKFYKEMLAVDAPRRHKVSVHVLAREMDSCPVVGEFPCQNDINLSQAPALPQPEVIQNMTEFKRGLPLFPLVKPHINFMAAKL
# [4] = toxicity toward HepG2 liver cells – cell-based, plate reader, cherry-pick, antagonist series, cytotoxicity control, dose response (AID 743416); assay type: functional
# [5] = biological target: T3, Replicative DNA helicase DnaB (Mycobacterium tuberculosis, UniProt P9WMR3); assay: DnaB intein splicing inhibitors, dose response, biochemical, cell-free fluorescence (AID 449749); assay type: functional
# T3 sequence (P9WMR3 whole entry): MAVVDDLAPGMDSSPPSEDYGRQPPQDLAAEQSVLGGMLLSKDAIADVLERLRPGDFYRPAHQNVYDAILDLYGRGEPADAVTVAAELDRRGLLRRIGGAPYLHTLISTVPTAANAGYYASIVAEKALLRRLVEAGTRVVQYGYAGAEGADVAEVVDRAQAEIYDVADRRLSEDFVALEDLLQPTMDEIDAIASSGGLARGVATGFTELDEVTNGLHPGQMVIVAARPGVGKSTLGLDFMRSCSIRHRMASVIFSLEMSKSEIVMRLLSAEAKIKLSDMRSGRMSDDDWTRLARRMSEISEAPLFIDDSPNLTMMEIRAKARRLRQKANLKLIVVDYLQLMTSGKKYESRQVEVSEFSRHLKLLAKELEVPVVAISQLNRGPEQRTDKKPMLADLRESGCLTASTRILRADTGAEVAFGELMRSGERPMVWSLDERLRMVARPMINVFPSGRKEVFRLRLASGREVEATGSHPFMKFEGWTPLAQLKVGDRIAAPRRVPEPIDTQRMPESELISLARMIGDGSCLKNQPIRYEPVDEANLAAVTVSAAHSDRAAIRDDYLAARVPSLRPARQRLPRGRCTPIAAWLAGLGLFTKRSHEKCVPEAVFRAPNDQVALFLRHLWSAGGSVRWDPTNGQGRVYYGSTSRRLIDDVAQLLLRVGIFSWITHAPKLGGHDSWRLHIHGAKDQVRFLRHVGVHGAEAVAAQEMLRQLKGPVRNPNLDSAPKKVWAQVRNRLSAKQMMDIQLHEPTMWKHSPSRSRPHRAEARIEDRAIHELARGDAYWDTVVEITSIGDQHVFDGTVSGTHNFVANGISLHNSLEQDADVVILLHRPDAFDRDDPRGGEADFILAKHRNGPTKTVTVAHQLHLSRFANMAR
compound,measurement,setting,value
Cl.N=c1n(Cc2ccccc2)c2ccccc2n1CC(O)COc1ccc(Cl)cc1Cl (configuration not stated),IC50,[1],33.4 µM (not active)
same,AC50,[2],14.3 µM (active)
same,AC50,[3],6.94 µM (active)
same,IC50,HEK293,8.27 µM (active)
same,EC50,Insulin-degrading enzyme,11.2 µM (inactive)
same,AC50,[4],6.16 µM (active)
same,AC50,[5],2.51 µM (active)
